Assay results as given in patent US5135849A, “In-vitro methods for identifying compositions which are agonists and antagonists of androgens” (priority 1989, dated 1992).

How the values were obtained:
[1] = tested on: 3H-E2 binding in LNCaP cells; test: Competition with 3H-E2 binding in LNCaP cells; design: species or system human
Protocol: (§1) Steroid receptors measurement: The presence of intracellular sex steroid binding proteins was investigated in whole cell extracts as well as in intact cells. Cytosolic and nuclear extracts were obtained after centrifugation (105,000 g, 45 min.) of a sonicated cellular suspension in TKE buffer (10 mM Tris, 500 mM KCl, 0.5 mM EDTA, pH 7.4). Aliquots of this extract were incubated for 18 hours at 4° C. with increasing concentrations (2×10^- M to 2×10^-8 M) of labelled steroids, with and without a 200-fold excess of the corresponding unlabelled steroid. Bound and free fractions were separated by dextran-coated charcoal adsorption. Intact cells grown in monolayer culture were assayed for specific steroid binding [Olea-Serrano et al., Eur. J. Cancer Clin. Oncol. 21:965-973 (1983)]. Briefly, the cells were incubated in 12-well plates during 50 minutes at 37° C. in DME containing the labelled steroid with and without excess of cold competitor. The range of concentrations used was the same as that in the cytosolic-nuclear extract assay. […] The intracellular radioactivity was extracted with ethanol after ice-cold PBS washing. In both types of experiments, Scatchard analysis of the saturation data was used to quantify the maximal binding capacity (Bmax) and the affinity parameters (dissociation constant, Kd) using the SCAFIT program [Munson et al., Anal. Biochem. 107:220-239 (1980)].

LNCaP cells [2] = test: Phase 1 protocol to identify androgen agonist properties (LNCaP cell proliferation in CDHS medium); format: cell-based, human; conditions: for PHASE 1 CELL COUNT: final cell number per well at the optimal test conc., 10% CDHS; for CHARACTERISTICS: classification from Phase 1 and Phase 2 protocols
From the text: This protocol measures the potential agonistic properties of the substance under test. All manipulations are to be carried out under sterile conditions using disposable plastic tissue culture multiwell plates with all manipulations preferrably being performed in a tissue culture hood.
1. The cell line of choice is the LNCaP-FGC cell culture, an androgen-sensitive prostate tumor cell line. The LNaP cell line is routinely grown in 5% fetal bovine serum--supplemented Dulbecco's modified Eagle minimal essential medium (hereinafter "5% FBS/DME"), at 37° C. in a 95% air--5% CO2 atmosphere.
2. The cultured cells growing in 5% FBS/DME are harvested by treatment with trypsin (1:250)--EDTA (0.2%). The cells are detached by brief exposure to trypsin for about two minutes. To avoid excessive proteolysis, the reaction is quenched by addition of equal volumes of 5% FBS/DME. The resulting cell suspension is collected into a sterile centrifuge tube and resuspended by pipetting gently. The aliquots of this cell suspension thus obtained are dispersed by means of a Skatron dispenser into individual wells containing the seedling medium (1 ml of 5% FBS/DME per well) of a multiwell plate. Each final prepared suspension preferably contains 50,000 cells in a volume of 1.0 ml. It is desirable that the number of cells be counted and verified by means of a Coulter Counter (Coulter Electronics, Hialeah, FL).
The number of wells in each plate will correspond to the number of concentrations per test substances to be evaluated and thus is merely a question of choice or convenience to the user. Into each well, 25 microliter (hereinafter "ul") aliquots of the prepared cell suspension are added using a 1.0 ml syringe fitted with a 19 gauge needle attached to a repetitive Dunn pipetter (Skatron Dispenser). The microtiter plate is then gently shaken to avoid unequal cell distribution within each individual well. The seeded cells are then allowed to attach to the plastic surface of the well proper over a period of 24-72 hours' duration after which the fluid is changed to the experimental maintaining medium.
3 At the time of test, all the seeded cells in each well of the multiwell plate receive 10% heat inactivated--charcoal-dextran human stripped serum (CDHS) in DME at a volume of 0.9 ml per well. Although higher concentrations of CDHS may be utilized up to and including 40% concentrations, the 10% concentration is most preferred.
5. To the other prepared (seeded) wells, 100 ul of the test substance to be evaluated is added as a 10X stock solution to achieve final concentrations ranging from 10^-5 M to at least 10^-12 M. The substance under test is preferably prepared as a stock solution in ethanol, most preferrably as a 10^-3 M solution. All dilutions from the stock preparation are made using DME. The ethanol concentration in the culture medium should be kept below […] by volume. This preparative technique and precaution avoids the need to filter the various volumes of test substance to achieve sterility. This is particularly valuable because steroidal compositions are known to become adsorbed to the commercially obtained filter membranes used for sterilization. The addition of the test substance in appropriate concentrations to the cultured cells and the maintaining medium forms a series of individual reaction mixtures, each of which is varied only by the concentration of the test substance present in the well.
6. After the series of individual reaction mixtures are formed, all of the cultured cells under test in each well of the microtiter plate are incubated at 37° C. preferably in an atmosphere of 5% CO2 /95% air under saturating humidity. During this incubation time, it is desired and preferred that the cultured cells employed in the test be maintained in an atmosphere most advantageous for survival and growth of that cell line. The incubation period preferably is in the range of from 5 to 7 days' duration.

androgen receptor = molecular target: T1, androgen receptor (Homo sapiens, UniProt P10275, T878A); test: Competition for androgen receptors with 3H-testosterone in LNCaP cytosol-nuclear extracts (RBA); format: binding; conditions: Table II, 5α-DHT = 100; 6×10^-9 M 3H-testosterone
T1 construct: the presence of specific androgen receptors in LNCaP cells; endogenous in cells; extract or intact cells for the saturation analysis
T1 sequence (P10275 whole entry T878A): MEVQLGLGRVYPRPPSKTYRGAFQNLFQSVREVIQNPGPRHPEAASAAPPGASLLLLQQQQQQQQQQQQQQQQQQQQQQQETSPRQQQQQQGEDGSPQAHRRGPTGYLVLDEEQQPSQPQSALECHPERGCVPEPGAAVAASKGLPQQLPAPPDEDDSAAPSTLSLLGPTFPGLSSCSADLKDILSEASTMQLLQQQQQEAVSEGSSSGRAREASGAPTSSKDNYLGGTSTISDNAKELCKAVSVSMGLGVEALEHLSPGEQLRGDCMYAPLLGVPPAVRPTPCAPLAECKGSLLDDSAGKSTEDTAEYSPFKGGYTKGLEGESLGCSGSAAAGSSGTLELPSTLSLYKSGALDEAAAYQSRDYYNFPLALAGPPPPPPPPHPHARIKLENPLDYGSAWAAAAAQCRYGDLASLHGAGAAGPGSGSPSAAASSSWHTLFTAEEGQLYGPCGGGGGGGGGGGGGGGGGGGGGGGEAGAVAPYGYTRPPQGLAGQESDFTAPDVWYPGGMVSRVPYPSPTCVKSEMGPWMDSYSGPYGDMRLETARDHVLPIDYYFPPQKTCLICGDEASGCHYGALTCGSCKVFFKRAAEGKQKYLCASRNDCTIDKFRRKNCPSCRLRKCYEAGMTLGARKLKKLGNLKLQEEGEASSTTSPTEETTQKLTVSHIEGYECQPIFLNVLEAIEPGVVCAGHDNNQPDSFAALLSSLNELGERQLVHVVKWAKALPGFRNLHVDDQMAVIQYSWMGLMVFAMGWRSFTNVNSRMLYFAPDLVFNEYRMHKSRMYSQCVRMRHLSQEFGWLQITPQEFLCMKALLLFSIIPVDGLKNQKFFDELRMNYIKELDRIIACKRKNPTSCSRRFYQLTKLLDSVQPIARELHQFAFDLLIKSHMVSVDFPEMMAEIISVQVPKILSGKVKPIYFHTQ
Protocol: as §1
Cytosol-nuclear extracts were used to study competition for androgen receptors. […] The relative binding affinity (RBA) was calculated from the equation: […]

LNCaP cells [3] = test: Phase 2 protocol for androgen antagonistic properties (LNCaP proliferation with 3×10^-10 M 5α-DHT plus test substance); conditions: Phase 2 protocol
LNCaP cells [4] = test: Proliferation rate (doubling time) of LNCaP cells in 10% CDHS; format: cell-based, human; conditions: compared with 5α-DHT
Protocol: 8. To obtain reproducible, accurate, and reliable data consistently using this protocol, a series of quality assurance measures should be employed. […] These goals are achieved using the optimal 5-7 day incubation period. […] For this innoculum, cells are harvested every 24-48 hours (preferably as triplicate samples) until the entire 5-7 day incubation period expires. A good estimate of the proliferation rate is the mean generation time, "tD ". tD is calculated from the equation α=1/txln Ct /Co , where Co is the initial cell number, Ct is the cell number at time-t, and α is the instantaneous cell proliferation constant (tD is the value ln Ct /Co x would have when Ct =2Co) "tD " is expressed in time units, i.e., hr. The slopes of the different growth curves are calculated by fitting the experimental data to a straight line by regression analysis of the pairs ln cell numbers/time. to is defined as the moment at which the seeding medium is replaced by the maintaining medium.
The inhibitory effect of CD human sera was not instantaneous; at the end of 3 to 4 days the population increase was halted and remained stable for up to 30 days without media changes.

| Structure (SMILES) | competition with 3H-E2 binding, in words [1] | PHASE 1 CELL COUNT (LNCaP cells [2]) | RBA (relative binding affinity to the androgen receptor) (androgen receptor) | antagonistic activity, in words (LNCaP cells [3]) | population doubling time, in words (LNCaP cells [4]) | CHARACTERISTICS (LNCaP cells [2]) | CHARACTERISTICS (LNCaP cells [2]; listed as estradiol-17β) |
| --- | --- | --- | --- | --- | --- | --- | --- |
| C#C[C@]1(O)CC[C@H]2[C@@H]3CCc4cc(O)ccc4[C@H]3[C@@H](OC)C[C@@]21C [R2858, 11β-methoxy-19-nor-17a-1,3,5(10)-trien-20-yne-3,17-diol] | did not compete | 5 × 10^4 | < 0.01 |  |  |  |  |
| C[C@]12CC[C@@H]3c4ccc(O)cc4CC[C@H]3[C@@H]1CC[C@@H]2O [estradiol 17β, estra-1,3,5(10)-triene-3,17-diol] |  | 4.0 × 10^5 |  | no antagonistic activity | slightly shorter population doubling time | full agonist | full agonists |
